Data: patent US4341756A, “Novel amino-dioxepane intermediates for the synthesis of new non-ionic contrast media” (The Regents of the University of California, priority 1980, dated 1982)

What was measured:
[1] = test system: mice; assay: Systemic Toxicity: LD50 of compound injected intravenously in mice; assay type: in vivo; details: intravenous, groups of 10 mice
Method: (§1) Employing conventional procedures, the following tests were carried out and compared with known commercially available contrast media. The following tables indicate the results.
LD50 (gI/kg bw) of compound injected
intravenously in groups of 10 mice.

[2] = test system: rats; assay: Neurotoxicity: neural deficits after intracisternal injections in rats; assay type: in vivo; details: for Deficit Scores: average of 10 rats, 0 = normal; for Neural deficits: rats
Method: as §1
tions in rats with chronically implanted
cannulas into the right ventricle.
Deficit scores were calculated on the basis of a preset rating (average o

[3] = test system: rats; assay: Aversive conditioning in rats (preference/avoidance after injection into the lateral ventricle); assay type: in vivo; details: for Aversion expressed in relation to Metrizamide: Metrizamide = 1; for % Aversion: injection into the lateral ventricle, average from a group of 10 rats
Method: as §1
Aversive conditioning in rats: (Test-
ing for preference/avoidance after an injection
into the lateral ventricle via a chronically im-
planted cannula) (Average from a group of 10 rats)

[4] = test system: Blepharisma americ.; assay: Cell Toxicity: LD50 at 4' of a standardized culture of a protozoan; assay type: cell-based; details: for LD50: at 4', standardized culture of Blepharisma americ.
Method: as §1
(LD50 at 4' of a standardized culture of a
protozoan Blepharisma americ.)

[5] = Water solubility; assay type: physicochemical; details: at 20° C.
Source text: (§2) This compound was synthesized as described for the hydroxyacetyl analog (VIIIb). The product was obtained in 69% yield as a colorless glassy solid.

[6] = Viscosity; assay type: physicochemical; details: 37° C., 300 mgI/ml
Source text: as §2

CC(=O)Nc1c(I)c(C(=O)N[C@H]2C(O)O[C@H](CO)[C@@H](O)[C@@H]2O)c(I)c(N(C)C(C)=O)c1I (stereo partly shown) [Metrizamide, 3-acetamido-5-(N-methylacetamido) triiodobenzoyl derivative of glucosamine, reference compound]
LD50 [1]: 12.1 gI/kg bw
Deficit Scores ([2]; 40 mg I): 25.3 ± 10.1
Deficit Scores ([2]; 60 mg I): 84.2 ± 12.3
Neural deficits ([2]; 100 mg I): Death
Aversion expressed in relation to Metrizamide [3]: 1 times less aversive
% Aversion [3]: 29.8%
LD50 [4]: 133 mg I/ml

CN(C(=O)CC(=O)N(C)c1c(I)c(C(=O)NC(CO)C(O)CO)c(I)c(C(=O)NC(CO)C(O)CO)c1I)c1c(I)c(C(=O)NC(CO)C(O)CO)c(I)c(C(=O)NC(CO)C(O)CO)c1I (stereo not drawn) [XVIII, N,N'-bis-Methyl-N,N'-bis [2,4,5-triiodo-3,5-bis-{N,N'-(1,3,4-trihydroxy-threo-but-2-yl)}-carbamoylphenyl]malondiamide]
Deficit Scores ([2]; 40 mg I): 0
Neural deficits ([2]; 40 mg I): Normal
Deficit Scores ([2]; 60 mg I): 0
Neural deficits ([2]; 60 mg I): Normal
Deficit Scores ([2]; 100 mg I): 0
Neural deficits ([2]; 100 mg I): Normal

C[C@H](O)C(=O)Nc1c(I)c(C(=O)NC(CO)CO)c(I)c(C(=O)NC(CO)CO)c1I [Iopamidol, N,N'-di(1',3'-dihydroxypropyl-2') 5-L-lactoylamido triiodoisophthaldiamide, reference compound]
LD50 [1]: 18.7 gI/kg bw
Deficit Scores ([2]; 40 mg I): 1.75 ± 0.96
Deficit Scores ([2]; 60 mg I): 22.0
Neural deficits ([2]; 100 mg I): Death
Aversion expressed in relation to Metrizamide [3]: 1.2 times less aversive
% Aversion [3]: 24.6%
LD50 [4]: 136 mg I/ml

CC(O)C(=O)Nc1c(I)c(C(=O)NC(CO)C(O)CO)c(I)c(C(=O)NC(CO)C(O)CO)c1I (racemic) [VIIIc, 2,4,6-triiodo-5-(2-DL or L-hydroxypropionylamino)-isophthalic acid-bis-N,N'-(1,3,4-trihydroxy-threo-but-2-yl)-amide]
solubility in water [5]: > 400 mgI/ml
viscosity [6]: 6.6 cps
LD50 [1]: 21.3 gI/kg bw
Deficit Scores ([2]; 40 mg I): 0
Neural deficits ([2]; 40 mg I): Normal
Deficit Scores ([2]; 60 mg I): 3.0 ± 1.73
Deficit Scores ([2]; 100 mg I): 26 ± 3.2
Aversion expressed in relation to Metrizamide [3]: 3.4 times less aversive
% Aversion [3]: 9.4%
LD50 [4]: 148 mg I/ml
Conclusion on toxicity ([4]; compared with Iopamidol and Metrizamide): lower toxicity than Iopamidol and Metrizamide
